Measurements: patent publication US6149948A, “Method of decreasing plasma cholesterol and triglycerides with a chromium-containing complex” (University of Alabama, priority 1999, dated 2000)

Tests used:
DH5α E. coli cells = conditions: DNA incubated 3 hrs with complex and peroxide; ampicillin plates
Protocol: A reaction mixture containing 10 μg of pUC19, 1.5 mM 1, and 0.900 mM H2 O in 10 mM Tris, pH 8.0 was allowed to react for 3 hours at 25° C. Quench buffer was added, and the sample was immediately loaded onto a 1% agarose gel containing 0.5 μg ml^-1 of ethidium bromide. After electrophoresis in 1×TBE buffer, the band at 3.5 kB was excised from the gel, and the DNA was removed from the gel using a Qiagen gel purification kit. The eluted DNA was gel-quantitated and used without further modification for transformation.
Electrocompetent DH5α E. coli cells were electroporated using 1 μL of 0.1 μg mL^-1 of either trimer-nicked DNA or supercoiled pUC19 plasmid DNA in 50 μL of cells. The E. coli cells were rescued by adding 1 mL of SOC media (20 gL^-1 Bactotryptone, 5 gL^-1 yeast extract, 9 mM NaCl, 20 mM glucose, pH 7.5), followed by incubation at 37° C. for 1 hour. Each cell suspension was diluted 1:100 with SOC media, and 50 μL of each diluted suspension was spread on separate LB-ANM agar plates containing 80 μg mL^-1 X-gal, 100 μM IPTG, and 100 μg mL^-1 ampicillin. The X-gal and IPTG were added to facilitate detection of colonies. The plates were placed in a 37° C. incubator overnight.

male Sprague Dawley rats [1] = conditions: rat, in vivo
Protocol: (§1) Four week old male Sprague Dawley rats were allowed to fed ad libitum on a commercial rat food and tap water. Rats were raised in standard plastic and stainless steel cages on a 12 hour light-dark cycle. Solid food intake and body mass were monitored daily. Twenty four rats were divided randomly into three groups of eight. […] The last group was injected with 200 μL of doubly deionized water daily and served as the control. After 12 weeks, the animals were sacrificed by carbon dioxide asphyxiation. Liver, kidney, heart, pancreas, testes, and epididymal fat were quickly harvested and weighed. Liver and kidney were placed into plastic screw-top containers and stored at -80° C. for further analysis.

pUC19 plasmid DNA [2] = system: pUC19 plasmid DNA
Protocol: The reactions contain pUC19 (39 μM in base pairs) and 50 μM phosphate buffer, pH 7.0, and: Lane 2, 5 MM ascorbate; Lanes 3-7, 5 mM ascorbate and 120, 40, 4.0, 0.40, and 0.040 μM 1, respectively; Lane 8, 5 mM ascorbate and 1.2 μM Cr(pic)3 ; Lane 9, 5 mM ascorbate and 120 pM 1 under argon; Lane 10, 5 mM ascorbate, 120 μM 1, and 1 M EtOH; Lane 11, 5 mM ascorbate, 120 μM 1, and 1 M t-BuOH; Lane 12, 5 mM ascorbate, 120 μM 1, and 100 μg/mL SOD; and Lane 13, 5 mM ascorbate, 120 μl , and 100 μ/mL catalase. Reactions were allowed to proceed 60 minutes before quenching.
A typical reaction was carried out mixing aliquots of pUC19 (in 5 μM Tris, 500 EDTA buffer (pH 8.0)), reductant in H2 O, LMWCr in 50 mM NH4 OAc (pH 6.5) or 1 in H2 O, phosphate buffer (pH 7.0), and H2 O to give a final volume of 15 μL; the final phosphate concentration was 50 mM. Inhibitors were added as solutions in H2 O, solutions in phosphate buffer, or as neat liquids. Reactions were allowed to proceed 180 minutes unless otherwise noted. All reactions were quenched by addition of loading buffer (24% glycerol and 0.1% bromophenol blue). Seven microliter aliquots were loaded directly onto a 1% agarose gel and electrophoresed at 60 V. The gel was stained with ethidium bromide and was photographed on a UV transilluminator. […]

male Sprague Dawley rats [3] = test: 12-week chromium supplementation of rats: body and tissue masses, toxic effects
Protocol: as §1

male Sprague Dawley rats [4] = test: Plasma variables after 4, 8 and 12 weeks of supplementation; format: in vivo, rat
Protocol: Solid food intake and body mass were monitored daily.
Blood was collected from the tail after four, eight, and twelve weeks of Cr or H2 O administration. Prior to blood collection, animals were fasted 12 to 15 hours.
Immediately after blood removal, 0.5 mg/mL heparin and 10 mg/mL NaF were added to the blood. Blood was next immediately centrifuged; the blood plasma was tested for glucose, total cholesterol, triglycerides, low density lipoprotein (LDL) cholesterol (week 12 only), and high density lipoprotein (HDL) cholesterol (week 12 only) using Diagnostic Kits from Sigma Chemical Co. (St. Louis, Mo.) and insulin using double antibody or antibody coated kits from ICN Biomedicals (Costa Mesa, Calif.).
Statistical analyses were performed by analysis of variance. All values are presented as mean±SEM. P values are calculated using standard deviations.

pUC19 plasmid DNA [5] = conditions: cited from earlier work
[6] = system: insulin-activated insulin receptor; conditions: cited from earlier work
[7] = system: cultured Chinese hamster ovary cells; conditions: cited from earlier work
rats = conditions: up to 1500 μg/kg diet for up to 24 weeks; cited from earlier work
[8] = plasma, Week 4, fasted rats, 20 μg Cr/kg daily i.v., mean ± SEM
[9] = plasma, Week 8, fasted rats, 20 μg Cr/kg daily i.v., mean ± SEM
[10] = plasma, Week 12, fasted rats, 20 μg Cr/kg daily i.v., mean ± SEM

## CCC(=O)[O-].CCC(=O)[O-].CCC(=O)[O-].CCC(=O)[O-].CCC(=O)[O-].CCC(=O)[O-].O.O.O.[Cr+3].[Cr+3].[Cr+3].[O-2] [Compound 1, [Cr3 O(O2 CCH2 CH3)6 (H2 O)3]^+]
DH5α E. coli cells
  colonies of E. coli transformed with complex-nicked pUC19 versus supercoiled pUC19: the same number of colonies
Male Sprague Dawley rats [1]
  iron concentration of liver: 6.0×10^2 μg/g dry mass
pUC19 plasmid DNA [2]
  DNA cleavage in the presence of dithiothreitol: does not increase the amount of cleavage
Male Sprague Dawley rats [3]; 12 weeks, 20 μg Cr/kg daily i.v.
  toxic effects of supplementation: no toxic effects were observed
Male Sprague Dawley rats [3]; after 12 weeks, daily tail vein injection, 20 μg Cr per kg body mass, mean ± SEM, eight rats
  Tissue mass, Epididymal fat: 4.44 + 0.45 grams
Male Sprague Dawley rats [4]; [8]
  Glucose: 168 ± 33 mg/dL
  Insulin: 99.0 ± 3.2 μIU/mL
  Total cholesterol: 65.2 ± 3.4 mg/dL
  Triglycerides: 83.3 ± 2.7 mg/dL
Male Sprague Dawley rats [4]; [9]
  Glucose: 75.5 ± 2.9 mg/dL
  Insulin: 43.3 ± 2.1 μIU/mL
  Total cholesterol: 63.8 ± 3.3 mg/dL
Male Sprague Dawley rats [4]; [10]
  Glucose: 68.2 ± 2.8 mg/dL
  HDL cholesterol: 10.7 ± 0.65 mg/dL
  Insulin: 43.0 ± 1.9 μIU/mL
  LDL cholesterol: 25.6 ± 2.4 mg/dL
  Total cholesterol: 46.9 ± 2.8 mg/dL
  Triglycerides: 53.2 ± 3.7 mg/dL
Male Sprague Dawley rats [4]; week 12
  LDL cholesterol concentration less than that of the control: ~40%
  total cholesterol concentration less than that of the control: 33%
pUC19 plasmid DNA [5]
  DNA cleavage (literature): not to lead to DNA cleavage
[6]
  stimulation of insulin receptor tyrosine kinase activity: mimic the ability of LMWCr to stimulate insulin receptor kinase activity

## CC(=O)[O-].CC(=O)[O-].CC(=O)[O-].CC(=O)[O-].CC(=O)[O-].CC(=O)[O-].O.O.O.[Cr+3].[Cr+3].[Cr+3].[O-2] [acetate analogue of 1, [Cr3 O(OAc)6 (H2 O)3]^+, reference compound]
pUC19 plasmid DNA [5]; Cr(pic)3: 120 nM chromium, 5 mM ascorbic acid or thiols, acetate analogue: ascorbate
  DNA cleavage in the presence of biological reductants (literature): unable to catalyze DNA cleavage in the presence of ascorbate

## chromium(III) tris(picolinate) [Cr(pic)3]
[7]
  DNA strand breaks: lead to DNA strand breaks
rats
  acute toxic effects: no acute toxic effects
